Test [1] has as its target T1, human Kv1.1 (HEK293) (Homo sapiens, UniProt Q09470).
T1 construct: expressed in transfected cells; host or cells: HEK293
Briefly: cell-based.

Test [2] addresses T2, human Kv1.3 (CHO) (Homo sapiens, UniProt P22001).
T2 construct: expressed in transfected cells; host or cells: CHO
Description: cell-based.

The results in this text go back to patent publication US20090299044A1 (priority 2006, published 2009).

Bridge positions count the residues as written; N and C are the ends. Square brackets hold non-standard residues; d marks the D form. Peptide text beside a SMILES is read from it. 1Nal = N[C@@H](Cc1cccc2ccccc12)C(=O)O

For orientation: IC50 means the concentration at which inhibition is half-maximal.

T2 sequence (P22001 whole entry): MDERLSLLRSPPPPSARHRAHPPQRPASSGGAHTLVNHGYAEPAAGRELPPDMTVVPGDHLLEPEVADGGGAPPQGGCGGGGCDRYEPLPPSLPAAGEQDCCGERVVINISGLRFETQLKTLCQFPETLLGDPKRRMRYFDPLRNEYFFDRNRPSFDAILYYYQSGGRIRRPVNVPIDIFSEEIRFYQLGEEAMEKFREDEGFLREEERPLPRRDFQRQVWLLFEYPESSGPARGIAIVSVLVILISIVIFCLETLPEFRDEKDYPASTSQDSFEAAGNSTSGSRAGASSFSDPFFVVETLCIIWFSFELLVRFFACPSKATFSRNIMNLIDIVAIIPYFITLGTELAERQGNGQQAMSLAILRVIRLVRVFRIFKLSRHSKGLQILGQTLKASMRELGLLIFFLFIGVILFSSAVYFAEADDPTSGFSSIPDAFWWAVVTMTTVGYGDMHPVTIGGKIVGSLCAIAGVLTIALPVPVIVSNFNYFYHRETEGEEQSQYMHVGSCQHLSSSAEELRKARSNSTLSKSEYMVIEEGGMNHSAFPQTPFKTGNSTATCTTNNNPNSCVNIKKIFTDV
T1 sequence (Q09470 whole entry): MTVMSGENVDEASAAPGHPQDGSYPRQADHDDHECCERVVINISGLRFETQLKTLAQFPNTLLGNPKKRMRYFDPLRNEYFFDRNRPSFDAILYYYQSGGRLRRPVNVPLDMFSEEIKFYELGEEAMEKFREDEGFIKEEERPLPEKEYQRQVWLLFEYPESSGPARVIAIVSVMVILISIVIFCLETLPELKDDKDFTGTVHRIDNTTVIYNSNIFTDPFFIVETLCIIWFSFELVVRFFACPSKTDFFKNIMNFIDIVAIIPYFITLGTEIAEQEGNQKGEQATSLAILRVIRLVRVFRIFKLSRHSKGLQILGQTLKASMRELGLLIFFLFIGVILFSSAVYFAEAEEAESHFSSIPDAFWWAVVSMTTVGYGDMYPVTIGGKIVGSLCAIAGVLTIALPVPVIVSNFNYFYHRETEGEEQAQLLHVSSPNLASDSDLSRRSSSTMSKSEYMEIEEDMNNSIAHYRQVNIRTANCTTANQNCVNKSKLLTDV

For `CC[C@H](C)[C@@H]1NC(=O)[C@H](CCCCN)NC(=O)[C@@H](NC(=O)[C@H](CCCCN)NC(=O)[C@@H](NC(=O)[C@H](CC(N)=O)NC(=O)[C@@H](NC(=O)[C@@H](NC(=O)[C@@H](NC(=O)CN)C(C)C)[C@@H](C)CC)[C@@H](C)CC)C(C)C)CSSC[C@@H]2NC(=O)[C@H](CCCCN)NC(=O)CNC(=O)[C@H](Cc3ccccc3)NC(=O)[C@H](CCCNC(=N)N)NC(=O)[C@H](CCSC)NC(=O)CNC(=O)[C@H](C)NC(=O)[C@H](CCC(=O)O)NC(=O)[C@H](CCCCN)NC(=O)[C@@H]3CSSC[C@@H](C(=O)N[C@H](C(=O)N4CCC[C@H]4C(=O)N[C@@H](CCCCN)C(=O)O)[C@@H](C)O)NC(=O)[C@H](Cc4c[nH]cn4)NC(=O)[C@H](CSSC[C@H](NC(=O)[C@H](CCC(N)=O)NC(=O)[C@H](CCCNC(=N)N)NC(=O)[C@H](CO)NC1=O)C(=O)N[C@@H](CC(C)C)C(=O)N[C@@H](CCC(=O)O)C(=O)N1CCC[C@H]1C(=O)N3)NC(=O)[C@H](CCCCN)NC(=O)CNC(=O)[C@H](CC(N)=O)NC(=O)[C@H](CCSC)NC2=O` [K20E] (H-GVIINVKCKISRQCLEPCKEAGMRFGKCMNGKCHCTPK-OH; disulfide 8-28, 14-33, 18-35), the IC50 in test [1] worked out at 0.00576 nM; in test [2], 0.0254 nM.
The like results for `CC[C@H](C)[C@@H]1NC(=O)[C@H](CCCCN)NC(=O)[C@@H](NC(=O)[C@H](CCCCN)NC(=O)[C@@H](NC(=O)[C@H](CC(N)=O)NC(=O)[C@@H](NC(=O)[C@@H](NC(=O)[C@@H](NC(=O)CN)C(C)C)[C@@H](C)CC)[C@@H](C)CC)C(C)C)CSSC[C@@H]2NC(=O)[C@H](CCCCN)NC(=O)CNC(=O)[C@H](Cc3ccccc3)NC(=O)[C@H](CCCNC(=N)N)NC(=O)[C@H](CCSC)NC(=O)CNC(=O)[C@H](C)NC(=O)[C@H](CCCNC(=N)N)NC(=O)[C@H](CCCCN)NC(=O)[C@@H]3CSSC[C@@H](C(=O)N[C@H](C(=O)N4CCC[C@H]4C(=O)N[C@@H](CCCCN)C(=O)O)[C@@H](C)O)NC(=O)[C@H](Cc4c[nH]cn4)NC(=O)[C@H](CSSC[C@H](NC(=O)[C@H](CCC(N)=O)NC(=O)[C@H](CCCNC(=N)N)NC(=O)[C@H](CO)NC1=O)C(=O)N[C@@H](CC(C)C)C(=O)N[C@@H](CCC(=O)O)C(=O)N1CCC[C@H]1C(=O)N3)NC(=O)[C@H](CCCCN)NC(=O)CNC(=O)[C@H](CC(N)=O)NC(=O)[C@H](CCSC)NC2=O` [K20R] (H-GVIINVKCKISRQCLEPCKRAGMRFGKCMNGKCHCTPK-OH; disulfide 8-28, 14-33, 18-35) were, in that order, less than 0.00152 nM and 0.00985 nM.
The like results for `CC[C@H](C)[C@@H]1NC(=O)[C@H](CCCCN)NC(=O)[C@@H](NC(=O)[C@H](CCCCN)NC(=O)[C@@H](NC(=O)[C@H](CC(N)=O)NC(=O)[C@@H](NC(=O)[C@@H](NC(=O)[C@@H](NC(=O)CN)C(C)C)[C@@H](C)CC)[C@@H](C)CC)C(C)C)CSSC[C@@H]2NC(=O)[C@H](CCC(=O)O)NC(=O)CNC(=O)[C@H](Cc3ccccc3)NC(=O)[C@H](CCCNC(=N)N)NC(=O)[C@H](CCSC)NC(=O)CNC(=O)[C@H](C)NC(=O)[C@H](CCCCN)NC(=O)[C@H](CCCCN)NC(=O)[C@@H]3CSSC[C@@H](C(=O)N[C@H](C(=O)N4CCC[C@H]4C(=O)N[C@@H](CCCCN)C(=O)O)[C@@H](C)O)NC(=O)[C@H](Cc4c[nH]cn4)NC(=O)[C@H](CSSC[C@H](NC(=O)[C@H](CCC(N)=O)NC(=O)[C@H](CCCNC(=N)N)NC(=O)[C@H](CO)NC1=O)C(=O)N[C@@H](CC(C)C)C(=O)N[C@@H](CCC(=O)O)C(=O)N1CCC[C@H]1C(=O)N3)NC(=O)[C@H](CCCCN)NC(=O)CNC(=O)[C@H](CC(N)=O)NC(=O)[C@H](CCSC)NC2=O` [K27E] (H-GVIINVKCKISRQCLEPCKKAGMRFGECMNGKCHCTPK-OH; disulfide 8-28, 14-33, 18-35) were, in that order, 0.549 nM and more than 3.33 nM.
The like results for `CC[C@H](C)[C@@H]1NC(=O)[C@H](CCCCN)NC(=O)[C@@H](NC(=O)[C@H](CCCCN)NC(=O)[C@@H](NC(=O)[C@H](CC(N)=O)NC(=O)[C@@H](NC(=O)[C@@H](NC(=O)[C@@H](NC(=O)CN)C(C)C)[C@@H](C)CC)[C@@H](C)CC)C(C)C)CSSC[C@@H]2NC(=O)[C@H](Cc3cccc4ccccc34)NC(=O)CNC(=O)[C@H](Cc3ccccc3)NC(=O)[C@H](CCCNC(=N)N)NC(=O)[C@H](CCSC)NC(=O)CNC(=O)[C@H](C)NC(=O)[C@H](CCCCN)NC(=O)[C@H](CCCCN)NC(=O)[C@@H]3CSSC[C@@H](C(=O)N[C@H](C(=O)N4CCC[C@H]4C(=O)N[C@@H](CCCCN)C(=O)O)[C@@H](C)O)NC(=O)[C@H](Cc4c[nH]cn4)NC(=O)[C@H](CSSC[C@H](NC(=O)[C@H](CCC(N)=O)NC(=O)[C@H](CCCNC(=N)N)NC(=O)[C@H](CO)NC1=O)C(=O)N[C@@H](CC(C)C)C(=O)N[C@@H](CCC(=O)O)C(=O)N1CCC[C@H]1C(=O)N3)NC(=O)[C@H](CCCCN)NC(=O)CNC(=O)[C@H](CC(N)=O)NC(=O)[C@H](CCSC)NC2=O` [K27Nal] (H-GVIINVKCKISRQCLEPCKKAGMRFG[1Nal]CMNGKCHCTPK-OH; disulfide 8-28, 14-33, 18-35) were, in that order, 1.04 nM and more than 3.33 nM.
Consider `CC[C@H](C)[C@@H]1NC(=O)[C@H](CCCCN)NC(=O)[C@@H](NC(=O)[C@H](CCCCN)NC(=O)[C@@H](NC(=O)[C@H](CC(N)=O)NC(=O)[C@@H](NC(=O)[C@@H](NC(=O)[C@@H](NC(=O)CN)C(C)C)[C@@H](C)CC)[C@@H](C)CC)C(C)C)CSSC[C@@H]2NC(=O)[C@H](CCCNC(=N)N)NC(=O)CNC(=O)[C@H](Cc3ccccc3)NC(=O)[C@H](CCCNC(=N)N)NC(=O)[C@H](CCSC)NC(=O)CNC(=O)[C@H](C)NC(=O)[C@H](CCCCN)NC(=O)[C@H](CCCCN)NC(=O)[C@@H]3CSSC[C@@H](C(=O)N[C@H](C(=O)N4CCC[C@H]4C(=O)N[C@@H](CCCCN)C(=O)O)[C@@H](C)O)NC(=O)[C@H](Cc4c[nH]cn4)NC(=O)[C@H](CSSC[C@H](NC(=O)[C@H](CCC(N)=O)NC(=O)[C@H](CCCNC(=N)N)NC(=O)[C@H](CO)NC1=O)C(=O)N[C@@H](CC(C)C)C(=O)N[C@@H](CCC(=O)O)C(=O)N1CCC[C@H]1C(=O)N3)NC(=O)[C@H](CCCCN)NC(=O)CNC(=O)[C@H](CC(N)=O)NC(=O)[C@H](CCSC)NC2=O` [K27R] (H-GVIINVKCKISRQCLEPCKKAGMRFGRCMNGKCHCTPK-OH; disulfide 8-28, 14-33, 18-35), for which the IC50 in test [1] was more than 3.33 nM; in test [2], 1.49 nM.
On to `CC[C@H](C)[C@@H]1NC(=O)[C@H](CCCCN)NC(=O)[C@@H](NC(=O)[C@H](CCCCN)NC(=O)[C@@H](NC(=O)[C@H](CC(N)=O)NC(=O)[C@@H](NC(=O)[C@@H](NC(=O)[C@@H](NC(=O)CN)C(C)C)[C@@H](C)CC)[C@@H](C)CC)C(C)C)CSSC[C@@H]2NC(=O)[C@H](CCCCN)NC(=O)CNC(=O)[C@H](Cc3ccccc3)NC(=O)[C@H](CCCNC(=N)N)NC(=O)[C@H](CCSC)NC(=O)CNC(=O)[C@H](C)NC(=O)[C@H](CCCCN)NC(=O)[C@H](CCCCN)NC(=O)[C@@H]3CSSC[C@@H](C(=O)N[C@H](C(=O)N4CCC[C@H]4C(=O)N[C@@H](CCCCN)C(=O)O)[C@@H](C)O)NC(=O)[C@H](Cc4c[nH]cn4)NC(=O)[C@H](CSSC[C@H](NC(=O)[C@H](CCC(N)=O)NC(=O)[C@H](CCCNC(=N)N)NC(=O)[C@H](CO)NC1=O)C(=O)N[C@@H](CC(C)C)C(=O)N[C@@H](CCC(=O)O)C(=O)N1CCC[C@H]1C(=O)N3)NC(=O)[C@H](CCC(=O)O)NC(=O)CNC(=O)[C@H](CC(N)=O)NC(=O)[C@H](CCSC)NC2=O` [K32E] (H-GVIINVKCKISRQCLEPCKKAGMRFGKCMNGECHCTPK-OH; disulfide 8-28, 14-33, 18-35), for which the concentration for half-maximal inhibition (IC50) in test [1] worked out at 0.0173 nM; in test [2] it was 0.0156 nM.
As to `CC[C@H](C)[C@@H]1NC(=O)[C@H](CCCCN)NC(=O)[C@@H](NC(=O)[C@H](CCCCN)NC(=O)[C@@H](NC(=O)[C@H](CC(N)=O)NC(=O)[C@@H](NC(=O)[C@@H](NC(=O)[C@@H](NC(=O)CN)C(C)C)[C@@H](C)CC)[C@@H](C)CC)C(C)C)CSSC[C@@H]2NC(=O)[C@H](CCCCN)NC(=O)CNC(=O)[C@H](Cc3ccccc3)NC(=O)[C@H](CCCNC(=N)N)NC(=O)[C@H](CCSC)NC(=O)CNC(=O)[C@H](C)NC(=O)[C@H](CCCCN)NC(=O)[C@H](CCCCN)NC(=O)[C@@H]3CSSC[C@@H](C(=O)N[C@H](C(=O)N4CCC[C@H]4C(=O)N[C@@H](CCCCN)C(=O)O)[C@@H](C)O)NC(=O)[C@H](Cc4c[nH]cn4)NC(=O)[C@H](CSSC[C@H](NC(=O)[C@H](CCC(N)=O)NC(=O)[C@H](CCCNC(=N)N)NC(=O)[C@H](CO)NC1=O)C(=O)N[C@@H](CC(C)C)C(=O)N[C@@H](CCC(=O)O)C(=O)N1CCC[C@H]1C(=O)N3)NC(=O)[C@H](CCCNC(=N)N)NC(=O)CNC(=O)[C@H](CC(N)=O)NC(=O)[C@H](CCSC)NC2=O` [K32R] (H-GVIINVKCKISRQCLEPCKKAGMRFGKCMNGRCHCTPK-OH; disulfide 8-28, 14-33, 18-35), the IC50 came to 0.00724 nM in test [1] and 0.0308 nM in test [2].
For the molecule `CC[C@H](C)[C@@H]1NC(=O)[C@H](CCCCN)NC(=O)[C@@H](NC(=O)[C@H](CCCCN)NC(=O)[C@@H](NC(=O)[C@H](CC(N)=O)NC(=O)[C@@H](NC(=O)[C@@H](NC(=O)[C@@H](NC(=O)CN)C(C)C)[C@@H](C)CC)[C@@H](C)CC)C(C)C)CSSC[C@@H]2NC(=O)[C@H](CCCCN)NC(=O)CNC(=O)[C@H](Cc3ccccc3)NC(=O)[C@H](CCCNC(=N)N)NC(=O)[C@H](CCSC)NC(=O)CNC(=O)[C@H](C)NC(=O)[C@H](CCCCN)NC(=O)[C@H](CCCCN)NC(=O)[C@@H]3CSSC[C@@H](C(=O)N[C@H](C(=O)N4CCC[C@H]4C(=O)N[C@@H](CCC(=O)O)C(=O)O)[C@@H](C)O)NC(=O)[C@H](Cc4c[nH]cn4)NC(=O)[C@H](CSSC[C@H](NC(=O)[C@H](CCC(N)=O)NC(=O)[C@H](CCCNC(=N)N)NC(=O)[C@H](CO)NC1=O)C(=O)N[C@@H](CC(C)C)C(=O)N[C@@H](CCC(=O)O)C(=O)N1CCC[C@H]1C(=O)N3)NC(=O)[C@H](CCCCN)NC(=O)CNC(=O)[C@H](CC(N)=O)NC(=O)[C@H](CCSC)NC2=O` [K38E] (H-GVIINVKCKISRQCLEPCKKAGMRFGKCMNGKCHCTPE-OH; disulfide 8-28, 14-33, 18-35), the IC50 is 0.0343 nM in test [1] and 0.0258 nM in test [2].
